The record followed here is ChEMBL document CHEMBL1250493, “Interaction of daunomycin with acetylated chromatin” (J Med Chem, 2010).

The species entered for assay [1] is Gallus gallus. The assay can be described thus: Binding affinity to histone H1 containing chromatin in chicken erythroleukemic cells mononucleosomes transformed with Marek's virus by Scatchard plot analysis.
The species entered for assay [2] is Gallus gallus. The assay can be described thus: Binding affinity to histone H1 depleted chromatin in chicken erythroleukemic cells mononucleosomes transformed with Marek's virus by Scatchard plot analysis.

In the case of `COc1cccc2c1C(=O)c1c(O)c3c(c(O)c1C2=O)C[C@@](O)(C(C)=O)C[C@@H]3O[C@H]1C[C@H](N)[C@H](O)[C@H](C)O1`, the K was found to be 4.6 ×10⁴ /M in the assay filed under Gallus gallus [1] and 6.4 ×10⁴ /M in the assay listed under Gallus gallus [2].
